Measurements as given in article PMC7748245, “Identification and Optimization of a Series of 8-Hydroxy Naphthyridines with Potent In Vitro Antileishmanial Activity: Initial SAR and Assessment of In Vivo Activity” (Journal of Medicinal Chemistry, 2020).
Where two headings read alike, the source gives them in different places.

Experiments:
THP-1 cells = experiment: THP-1 host cell toxicity readout of the intramacrophage assay; format: cell-based, human; settings: for THP-1 (pEC50) / EC50: human THP-1 host cells; for THP1 pIC50 / IC50: supplement sheet; for IC50: Homo sapiens, THP-1, read-out: THP1 pIC50 (converted); for EC50: read-out: THP-1 (pEC50) (converted)
Method: (§1) This assay was conducted as previously described,[8] except for compound exposure time, which was 96 h instead of 72 h.

[1] = Kinetic aqueous solubility; format: physicochemical; settings: for solubility kinetic: read-out: Aq Solubility (kinetic aqueous solubility); for solubility: aqueous medium (not further specified), supplement sheet
Method: (§2) These assays were conducted as previously described.[23]

L. donovani amastigotes = experiment: Intramacrophage L. donovani assay (Ld InMac); format: cell-based, Leishmania donovani; settings: for LdInMac pIC50 / IC50: supplement sheet; for IC50: read-out: LdInMac pIC50 (converted)
Method: as §1

[2] = mouse, in vivo
Method: (§3) Because of having higher metabolic stability (in mouse liver microsomes) and lower Chrom Log D, compound 16 was progressed into a VL in vivo efficacy study, carried out in our previously described VL mouse model.[7] […] Parasite load was determined in the livers of animals 3 days after cessation of treatment, and parasite burden was expressed in Leishman Donovan units (LDUs, the mean number of amastigotes per liver cell × mg weight of liver). The blood exposure of compound 16 was also determined in dosed animals on days 1 and 5 to better understand the PK/pharmacodynamics (PD) relationship of the series. According to our project criteria, a compound needs to reduce parasite burden by >70% before being considered suitable for progression to lead-optimization, while a reduction of >95% would be considered suitable for a preclinical development candidate.[12] In the study, miltefosine behaved as expected, reducing parasite levels by >99% at 30 mg/kg qd. After twice daily ip dosing at 50 mg/kg, compound 16 reduced parasite burden in mouse liver by 46%. This provided an early proof of concept for this series but fell short of our target of >70% parasite reduction.

Chrom Log D pH7.4 = format: physicochemical; settings: for ChromLogDpH7.4 / chromatographic logD: pH 7.4
Method: This assay was conducted as previously described.[11]

[3] = format: in vitro ADME, mouse
Method: As a means of measuring glucuronidation in vitro, 16 was assessed in a mouse liver hepatocyte assay.

[4] = Mouse liver microsomal intrinsic clearance; format: in vitro ADME; settings: for Cli (mouse liver microsomal intrinsic clearance): mouse liver microsomes; for Cli (mouse, ml/min/g): supplement sheet
Method: as §2

Leishmania donovani = experiment: VL mouse in vivo efficacy model (liver parasite burden, LDU)
Method: as §3, with “candidate.[12]” for “candidate.[12] In the study, miltefosine behaved as expected, reducing parasite levels by >99% at 30 mg/kg qd. After twice daily ip dosing at 50 mg/kg, compound 16 reduced parasite burden in mouse liver by 46%. This provided an early proof of concept for this series but fell short of our target of >70% parasite reduction.”
In vivo studies were carried out as previously described.[12]

[5] = Mouse PK study 50 mg/kg ip (metabolites, tolerability); format: in vivo
Method: Since 7 itself was metabolically unstable (Cli = 10 mg/mL/g), we became interested in transferring the SAR from the triazole subseries (e.g., 16) to investigate its impact on metabolic stability, with a particular focus on glucuronidation. To this end, we synthesized 26 (Table 5) as a direct analogue of triazole 16.
Figure 3 PK profile of 26, showing levels of parent, glucuronide adduct, major hydroxylated metabolite, and other minor metabolites. Data are based on two replicates, with error bars representing the range of the data from the two runs. Blood/water (30 μL, 1:2) were collected following 50 mg/kg ip administration to Balb C mice at prescribed time points; 90 μL of acetonitrile (ACN) was then added to each sample and the samples were centrifuged for 5 min at 7000 rpm; 90 μL of supernatant was removed and added to 50 μL of Milli-Q water before ultrahigh-performance liquid chromatography–quadrupole time-of-flight (UPLC Q-TOF) analysis.
We synthesized a set of benzyl amides, where 4-methoxy analogue 27 and α-methyl-4-fluoro analogue 28 both gave very encouraging profiles, meeting progression criteria in terms of potency, metabolic stability, and clearance. […] Due to its impressive in vitro potency, we selected 28 for progression into an in vivo PK study.
We noted that a related compound from Merck, L-870,810 (30),[17] was reported as a clinical candidate targeting HIV integrase, which progressed as far as phase II clinical trials. […] Also, introducing substituents into the 5-naphthyridyl position had been a successful strategy for improving metabolic stability and potency in the triazole subseries. We therefore investigated a range of 5-substituted naphthyridyl analogues (Table 5). THP-amine 31 and morpholine 32 lost potency compared to parent compound 7, so we switched attention back to 5-phenylnaphthyridines. […] Further combinations of nonaromatic amides with differently substituted 5-phenylnaphthyridines were synthesized, and while changing the phenyl substituent gave flat SAR and no advantage over previous compounds, exploration of the amide led to 34 with a trans-4-methoxycyclopropylamide. Compound 34 gave a good balance of potency, solubility, and microsomal stability and was therefore selected for a mouse PK study.

monoamine oxidase A = target: T1, monoamine oxidase A (Homo sapiens, UniProt P21397); experiment: GSK enhanced cross-screen panel (eXP): monoamine oxidase A; format: biochemical; settings: read-out: pIC50 against monoamine oxidase A (converted)
T1 sequence (P21397 1-527): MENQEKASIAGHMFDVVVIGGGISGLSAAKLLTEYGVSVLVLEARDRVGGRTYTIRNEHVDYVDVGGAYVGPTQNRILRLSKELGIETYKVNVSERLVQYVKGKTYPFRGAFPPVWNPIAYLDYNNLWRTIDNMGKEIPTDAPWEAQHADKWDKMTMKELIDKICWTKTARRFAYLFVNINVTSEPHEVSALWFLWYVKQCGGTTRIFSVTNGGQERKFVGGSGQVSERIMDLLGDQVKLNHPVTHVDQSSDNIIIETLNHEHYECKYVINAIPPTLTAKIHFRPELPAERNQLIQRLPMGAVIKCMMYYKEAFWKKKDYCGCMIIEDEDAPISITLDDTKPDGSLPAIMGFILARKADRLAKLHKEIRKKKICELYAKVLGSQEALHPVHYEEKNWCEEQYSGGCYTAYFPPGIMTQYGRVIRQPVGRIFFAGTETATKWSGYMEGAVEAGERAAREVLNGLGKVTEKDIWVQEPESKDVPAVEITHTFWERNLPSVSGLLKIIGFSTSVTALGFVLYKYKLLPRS
Source text: (§4) First, the compounds which were poorly tolerated in mice, 28 and 34, were screened against a panel of >30 receptors with known links to in vivo toxicity (GSK-enhanced cross-screen panel (eXP)).[18] […] From this, it was not clear whether the effects seen in the receptor screen were related to the observed in vivo toxicity.

[6] = tested on: cell health (mitochondrial integrity); experiment: GSK eXP: phenotypic cell health assay; format: cell-based; settings: GSK eXP panel
Source text: as §4

[7] = target: bile salt export pump (BSEP) (Homo sapiens, UniProt O95342); experiment: GSK eXP: bile salt export pump (BSEP) assay; format: biochemical; settings: GSK eXP panel; read-out: pIC50 in BSEP assay (converted)
Source text: as §4

phospholipidosis = experiment: GSK eXP: phospholipidosis assay; format: cell-based; settings: GSK eXP panel
Source text: as §4

[8] = L. donovani amastigotes in THP-1 cells, 96 h compound exposure
[9] = chromatographic (HPLC retention) system, supplement sheet, read-out: ChromLogD
[10] = chromatographic system (Chrom Log D), read-out: ChromLogDpH7.4

bile salt export pump (BSEP), sequence (O95342 whole entry, species assumed): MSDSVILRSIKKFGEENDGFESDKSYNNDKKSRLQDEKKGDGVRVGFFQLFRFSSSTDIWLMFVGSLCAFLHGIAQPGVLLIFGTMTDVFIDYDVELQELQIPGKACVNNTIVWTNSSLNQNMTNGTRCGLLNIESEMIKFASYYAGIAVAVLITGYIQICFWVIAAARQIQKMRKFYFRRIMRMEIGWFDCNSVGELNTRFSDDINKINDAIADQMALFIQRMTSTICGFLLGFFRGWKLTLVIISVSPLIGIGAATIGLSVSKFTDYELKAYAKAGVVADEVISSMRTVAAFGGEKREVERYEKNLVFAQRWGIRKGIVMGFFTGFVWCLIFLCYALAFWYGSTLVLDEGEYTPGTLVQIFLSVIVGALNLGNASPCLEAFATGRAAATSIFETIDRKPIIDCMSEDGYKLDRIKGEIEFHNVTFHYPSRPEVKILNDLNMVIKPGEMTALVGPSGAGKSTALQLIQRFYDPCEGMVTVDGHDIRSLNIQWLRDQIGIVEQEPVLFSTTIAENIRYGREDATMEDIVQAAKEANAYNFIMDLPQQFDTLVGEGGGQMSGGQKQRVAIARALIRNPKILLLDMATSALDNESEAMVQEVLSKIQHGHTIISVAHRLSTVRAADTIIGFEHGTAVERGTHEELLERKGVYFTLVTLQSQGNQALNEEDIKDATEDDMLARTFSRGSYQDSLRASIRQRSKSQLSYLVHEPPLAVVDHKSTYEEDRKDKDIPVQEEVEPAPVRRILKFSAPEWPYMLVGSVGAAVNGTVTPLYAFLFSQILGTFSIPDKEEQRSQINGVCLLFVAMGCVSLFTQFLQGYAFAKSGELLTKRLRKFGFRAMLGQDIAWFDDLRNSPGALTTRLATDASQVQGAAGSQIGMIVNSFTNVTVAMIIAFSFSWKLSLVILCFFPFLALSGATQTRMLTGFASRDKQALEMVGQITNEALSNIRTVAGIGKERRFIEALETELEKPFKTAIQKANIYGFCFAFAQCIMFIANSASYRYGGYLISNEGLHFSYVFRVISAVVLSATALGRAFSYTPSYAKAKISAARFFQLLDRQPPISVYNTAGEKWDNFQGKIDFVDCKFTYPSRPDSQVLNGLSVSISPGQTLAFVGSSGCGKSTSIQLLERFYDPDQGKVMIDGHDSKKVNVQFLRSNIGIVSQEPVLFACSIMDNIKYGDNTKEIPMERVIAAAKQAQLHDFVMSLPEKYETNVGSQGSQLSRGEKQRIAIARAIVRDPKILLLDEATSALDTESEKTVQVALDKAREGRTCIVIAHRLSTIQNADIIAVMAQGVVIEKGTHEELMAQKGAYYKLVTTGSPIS

SMILES	Ld InMac (pEC50) (L. donovani amastigotes; [8])	LdInMac pIC50 (L. donovani amastigotes)	ChromLogDpH7.4 (Chrom Log D pH7.4)	ChromLogD (Chrom Log D pH7.4; supplement sheet)	THP-1 (pEC50) (THP-1 cells)	THP1 pIC50 (THP-1 cells)	solubility kinetic [1] [µM]	Cli (mouse liver microsomal intrinsic clearance) [4] [mL/min/g]	Cli (mouse, ml/min/g) [4] [mL/min/g]	IC50 (THP-1 cells) [µM]	IC50 (L. donovani amastigotes; Leishmania donovani) [µM]	tolerability in mouse PK study ([5]; mouse)	EC50 (THP-1 cells) [µM]	solubility [1] [µg/mL]	chromatographic logD (Chrom Log D pH7.4; [9])	chromatographic logD (Chrom Log D pH7.4; [10])	other results
CNC(=O)c1nc(-c2ccccc2OC)c2cccnc2c1O [Compound 26, 8-Hydroxy-5-(2-methoxyphenyl)-N-methyl-1,6-naphthyridine-7-carboxamide]	–	–	–	–	–	–	–	–	–	39.8	10	–	–	–	–	–	parent remaining in blood ([5]; Balb C mice, 8 h post-dose): significant quantities of parent were still present 8 h post-dose; in vivo glucuronidation / metabolites ([5]; Balb C mice, blood): little evidence of glucuronidation
CC(NC(=O)c1ncc2cccnc2c1O)c1ccc(F)cc1 (stereo not shown) [Compound 28, N-(1-(4-Fluorophenyl)ethyl)-8-hydroxy-1,6-naphthyridine-7-carboxamide]	–	–	–	–	–	–	> 250	3.7	3.7	5.01	0.158	proved to be toxic	5.01	> 250	5.1	5.1	time to symptoms requiring termination ([5]; mouse): ≤ 3.5 h; IC50 (monoamine oxidase A): 3.98 µM; IC50 ([6]; read-out: pIC50 in phenotypic cell health assay (converted)): 12.6 µM
COc1ccccc1-c1nc(C(=O)N[C@H]2CC[C@H](OC)CC2)c(O)c2ncccc12 [Compound 34, 8-Hydroxy-N-(trans-4-methoxycyclohexyl)-5-(2-methoxyphenyl)-1,6-naphthyridine-7-carboxamide]	–	–	–	–	–	–	> 250	1.4	1.4	39.8	1	displayed the similar symptoms as with compound 28	39.8	> 250	5.7	5.7	time after which study was terminated ([5]; mouse): 60 min; EC50 (L. donovani amastigotes; Leishmania donovani, THP-1, 96 h, L. donovani amastigotes in THP-1 cells, 96 h compound exposure, read-out: Ld InMac (pEC50) (converted)): 1 µM; pIC50 in phenotypic cell health assay [6]: showed potency in the cell health assay; IC50 [7]: 15.8 µM; activity in phospholipidosis assay (phospholipidosis): activity

The next lines start with results.

Ld InMac (pEC50) (L. donovani amastigotes; [8])	LdInMac pIC50 (L. donovani amastigotes)	ChromLogDpH7.4 (Chrom Log D pH7.4)	ChromLogD (Chrom Log D pH7.4; supplement sheet)	SMILES	THP-1 (pEC50) (THP-1 cells)	THP1 pIC50 (THP-1 cells)	solubility kinetic [1] [µM]	Cli (mouse liver microsomal intrinsic clearance) [4] [mL/min/g]	Cli (mouse, ml/min/g) [4] [mL/min/g]	IC50 (THP-1 cells) [µM]	IC50 (L. donovani amastigotes; Leishmania donovani) [µM]	tolerability in mouse PK study ([5]; mouse)	EC50 (THP-1 cells) [µM]	solubility [1] [µg/mL]	chromatographic logD (Chrom Log D pH7.4; [9])	chromatographic logD (Chrom Log D pH7.4; [10])	other results
6.2	6.2	3.2	3.2	COc1ccccc1-c1nc(-c2nc(C)n[nH]2)c(O)c2ncccc12 [Compound 16, 5-(2-Methoxyphenyl)-7-(3-methyl-1H-1,2,4-triazol-5-yl)-1,6-naphthyridin-8-ol]	<4.3	<4.3	>250	0.8	0.8	–	–	–	–	–	–	–	Tmax [2]: 30 min; Tmax ([2]; ip, 50 mg/kg): 30 min; glucuronidated adducts in blood samples ([2]; ip, 50 mg/kg): presence of glucuronidated adducts; time unbound blood concentration exceeds EC99 ([2]; ip, 50 mg/kg): only during the first hour post-dose; glucuronide adduct observed in hepatocytes [3]: negligible amounts of the glucuronide adduct; clearance in mouse hepatocytes ([3]; mouse, hepatocytes): 1.4 mL/min/g; reduction of parasite burden in mouse liver (Leishmania donovani; 50 mg/kg ip twice daily, 5 days): 46%; VL mouse efficacy model Reduction in parasite levels % (Leishmania donovani; supplement sheet): 46%
5.3	5.3	5.3	5.3	O=C(NCc1ccc(Cl)cc1)c1nc(NC2CCOCC2)c2cccnc2c1O [Compound 31, N-(4-Chlorobenzyl)-8-hydroxy-5-((tetrahydro-2H-pyran-4-yl)amino)-1,6-naphthyridine-7-carboxamide]	<4.3	<4.3	>250	2.2	2.2	–	–	–	–	–	–	–	–
